# Experimental data taken from patent US12286442B2, “Methods and materials for increasing transcription factor eb polypeptide levels” (University of Pittsburgh—Of the Commonwealth System of …, priority 2019, dated 2025).
# “Also recorded” adds a separate entry of the source.
# Experiments:
# [1] = test system: TFEB; experiment: Immunoblotting for TFEB-GFP protein levels in MLE12 cells stably expressing TFEB-EGFP; format: cell-based, murine; conditions: dose dependent, 18 hours / 24 hours
# Protocol: (§1) FIGS. 2A-C. BC1753 increases TFEB polypeptide levels. A. The structure of BC1753 is provided. B. MLE12 cells stably expressing TFEB-EGFP were treated with the indicated amounts of BC1753 for 24 hours before immunoblotting for TFEB-GFP and β-actin. C. MLE12 cells stably expressing TFEB-EGFP were treated with the indicated amounts of BC1753 for 24 hours before imaging by confocal microscopy (scale bar=10 μm).
# (§2) BC1753 (FIG. 2A) was tested for its ability to increase TFEB polypeptide levels. Briefly, murine lung epithelial cells (MLE12) stably expressing TFEB-EGFP were treated with BC1753 in a dose dependent manner for 18 hours. Cells were then collected and assayed by immunoblotting for TFEB-GFP protein levels (FIG. 2B). Murine lung epithelial cells (MLE12) stably expressing TFEB-EGFP were treated with […] in a dose dependent manner for 18 hours. Cells were then fixed with 4% PFA followed by DAPI staining. TFEB localization was imaged on the GFP channel along with the DAPI signal using a Nikon A1 confocal microscope (FIG. 2C).
# [2] = test system: TFEB; experiment: Confocal imaging of TFEB localization in MLE12 cells stably expressing TFEB-EGFP; format: cell-based, murine; conditions: dose dependent, 18 hours / 24 hours
# Protocol: as §1, §2
# [3] = test system: liver lysosomes; experiment: Liver lysosomal activity in mice (dextran blue confocal microscopy, Lamp2 immunostaining); format: in vivo; conditions: female C57BL6 mice, i.p. for 4 days, 50 mg/kg/d or 30 mg/kg/day; for liver lysosomal dextran blue signal (lysosomal number and activity): liver 24 hours after i.v. dextran blue; for liver Lamp2 staining: liver slides
# Protocol: FIG. 7. Compound 15 increases liver lysosomal activity. Female C57BL6 mice were intraperitoneally (i.p.) injected with Cmpd. 15 (50 mg/kg/d) for 4 days. Mice were then intravenously (i.v.) injected with dextran blue. 24 hours later, mice were sacrificed, and livers were removed and imaged through confocal microscopy. White fluorescent signal indicates dextran blue within lysosome and provides a measure of lysosomal number and activity within the hepatic tissue (Upper panels). […] Scale bar: 50 microns.
# Female C57BL6 mice were i.p. injected with Compound 15 (30 mg/kg/day) for 4 days. Mice were then i.v. injected with dextran blue. 24 hours later, mice were sacrificed, and liver samples were removed and imaged through confocal microscopy.
# [4] = test system: TFEB; experiment: High content screen measuring TFEB nuclear accumulation (TFEB nuclear/cytosol ratio) in BEAS-2B cells stably expressing TFEB-EGFP; format: cell-based, human; conditions: 18 hours incubation
# Procedure, shortened: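 Readout: lowest compound concentration giving a 25% rise in nuclear/cytosol TFEB-GFP ratio, from DAPI-masked nuclear and mask-expanded cytosolic signals. Cells (BEAS-2B, TFEB-EGFP stable, ~2300–2500/well) rested 8 hours, then treated 18 hours with compound serial dilutions in 2% FBS medium before PFA fixation and DAPI staining.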
# [5] = test system: BEAS-2B cells; experiment: Toxicity: compound concentration needed to induce greater than 50 percent of cell loss; format: cell-based, human; conditions: 18 hours incubation
# Procedure, shortened: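 Reported value is the concentration giving greater than 50 percent cell loss, grouped into bins (≥25 μM; between 1 and 25 μM; ≤1 μM as "+++"). Measured by high-content imaging of DAPI-stained BEAS-2B TFEB-EGFP cells fixed after 18 h compound exposure.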
# [6] = test system: b-hexosaminidase (a lysosomal enzyme); experiment: Secreted b-hexosaminidase activity normalized with cellular b-hexosaminidase activity in Beas2B cells; format: cell-based, human; conditions: indicated concentration, 18 hours
# Protocol: (§3) FIGS. 5A-B. Compound 133 and Compound 115 increased lysosomal protein expression and secretion. A. Beas2B cells were treated with Cmpd. 133 at 10 μM for 24 hours. Cells then were collected and assayed for lysosomal protein gene expression. B. Beas2B cells were treated with Cmpd. 115 at the indicated concentration for 18 hours. Secreted b-hexosaminidase activity (a lysosomal enzyme) then was measured and normalized with cellular b-hexosaminidase activity.
# [7] = test system: lysosomal protein gene expression; experiment: Lysosomal protein gene expression in Beas2B cells; format: cell-based, human; conditions: 10 μM for 24 hours
# Protocol: as §3
# [8] = test system: Beas2B cells; experiment: Lysosome quantity in Beas2B cells (light microscope, lysotracker Red confocal microscopy); format: cell-based, human; conditions: 18 hours, 1 μM or indicated concentrations
# Protocol: FIGS. 4A-B. Compound 178 (BC1834) and Compound 160 (BC18200) increased lysosome quantity. A. Beas2B cells were treated with Cmpd. 178, Cmpd. 160, or the GSK3b inhibitor TWS119 (1 μM for 18 hours). Cells were then imaged through light microscope. B. Beas2B cells were treated with Cmpd. 178 for 18 hours at the indicated concentrations. Cells were then stained with lysotracker Red (100 nM) for 30 minutes. Cells then were washed and imaged through confocal microscopy.
# [9] = test system: GFP-72Q (Huntingtin); experiment: GFP-Huntingtin levels in SH5Y cells stably transfected with GFP-72Q (confocal imaging, immunoblot); format: cell-based; conditions: SH5Y cells stably expressing GFP-Huntingtin (72Q), indicated amounts, 24 hours
# Protocol: FIGS. 6A-B. Compound 178 reduced Huntingtin gene expression. A-B. SH5Y cells stably transfected with GFP-72Q (Huntingtin) were treated with the indicated amounts of Cmpd. 178 for 24 hours. Cells then were imaged with a confocal microscope or collected and assayed for protein expression using a GFP-Huntingtin immunoblot.
# Compound 178 (BC1834) was tested for the ability to reduce Huntingtin polypeptide levels within cells. Briefly, Compound 178 was administered to SH5Y cells stably expressing GFP-Huntingtin (72Q).
Compound,total TFEB polypeptide levels within cells (TFEB-GFP immunoblot) [1],nuclear TFEB polypeptide accumulation (confocal microscopy) [2],liver lysosomal dextran blue signal (lysosomal number and activity) [3],liver Lamp2 staining [3],efficacy (minimal compound concentration needed to increase TFEB nuclear/cytosol ratio by 25%) [4],toxicity (compound concentration needed to induce greater than 50 percent of cell loss) [5],secretion of the lysosomal enzyme beta hexosaminidase [6],lysosomal protein expression [7],lysosome quantity [8],GFP-Huntingtin polypeptide levels [9]
COc1ccc(-n2c(=O)c3ccc(C(=O)NCCc4ccccc4)cc3n(CC(=O)Nc3ccc(C)cc3)c2=O)cc1 [BC1753],increases; also recorded: drastically increased,increased,,,,,,,,
c1ccc2c(Nc3ccc4ccncc4c3)nc(-c3ccncc3)nc2c1 [Compound 13],,,drastically increased,drastically increased,+ (“+” equals >25 μM),+ (cell loss of greater than 50 percent at a concentration that equals or is greater than 25 μM was represented as),,,,
c1ccc2c(Nc3ccc4[nH]ccc4c3)nc(-c3ccncc3)nc2c1 [Compound 15],,,increases,enhanced signals,+++ (“+++” equals ≤1 μM),+ (cell loss of greater than 50 percent at a concentration that equals or is greater than 25 μM was represented as),,,,
COc1cccc2c(Nc3ccc4[nH]ccc4c3)nc(-c3ccncc3)nc12 [Compound 115],,,,,+ (“+” equals >25 μM),+ (cell loss of greater than 50 percent at a concentration that equals or is greater than 25 μM was represented as),increased,,,
c1cnc2nc(-c3ccncc3)nc(Nc3ccc4c(c3)OCO4)c2c1 [Compound 133],,,,,+++ (“+++” equals ≤1 μM),+ (cell loss of greater than 50 percent at a concentration that equals or is greater than 25 μM was represented as),,increased,,
c1ccc2c(Nc3ccc4[nH]ncc4c3)nc(-c3ccncc3)nc2c1 [Compound 160],,,,,+++ (“+++” equals ≤1 μM),++ (cell loss of greater than 50 percent at a concentration less than 25 μM and greater than 1 μM was represented as),increase,increase,increase,
Fc1cccc(Nc2nc(-c3ccncc3)nc3ccccc23)c1 [Compound 178],,,,,+++ (“+++” equals ≤1 μM),+ (cell loss of greater than 50 percent at a concentration that equals or is greater than 25 μM was represented as),increase,increase,increase,dose dependently reduced
c1cnc2cc(-c3ccncc3)nc(Nc3ccc4nc(C5CCC5)sc4c3)c2c1 [Compound 402],,,,,+++ (“+++” equals ≤1 μM),+ (cell loss of greater than 50 percent at a concentration that equals or is greater than 25 μM was represented as),,,,
